Measurements: patent US20230108442A1, “NOVEL ANTIMALARIAL AGENT CONTAINING HETEROCYCLIC COMPOUND” (Eisai R&D Management Co., Ltd., priority 2020, published 2023)
Where “and” joins values, the source holds several entries; their conditions need not be identical. Equal entries are not always repeated.

How the values were obtained:
[1] = system: Plasmodium falciparum strain 3D7 (chloroquine-sensitive); assay: in vitro drug susceptibility test, parasite lactate dehydrogenase detection, strain 3D7; type: cell-based; conditions: 72 hours incubation, pLDH absorbance at 660 nm, read-out: Pf_3D7 IC50
Experimental: (§1) Plasmodium falciparum strain 3D7 (chloroquine-sensitive) and K1 (chloroquine-resistant) were obtained from Kitasato University and used for testing antimalarial activities in vitro. The cultivation of P. falciparum was conducted according to Trager's method (Trager, W and Jensen and J., Human malaria parasites in continuous culture. Science, 193:673-677, 1976) with some modification. Precisely, parasites were kept in culture flasks with RPMI1640 medium supplemented with 10% human plasma and 2% fresh human erythrocytes and incubated at 37° C. with the gas condition of 5% CO2 and 5% 02. The parasitemia (percentage of infected erythrocytes to total erythrocytes) were kept within 0.25-10%. Culture medium were replaced and fresh erythrocytes were supplied every 2-3 days. Drug susceptibility test was conducted according to Desjardins's method (Desjardins, R. E., Canfield, C. J., Haynes, D. E. and Chulay, J. D., Quantitative assessment of antimalarial activity in vitro by a semiautomated microdilution technique. Antimicrob. Agents Chemother., 16:710-718, 1979) with some modification. The compounds I to IX and known antimalarial agents (chloroquine and artemisinin) were tested at the same time. Precisely, 199 micro L of parasite cultures (2% hematocrit and 0.75-1% parasitemia) and 1 micro L of compound solution serially diluted in DMSO were poured into every well in 96-well titer plates and final drug concentrations were set within 0.001-1 micro g/mL. The plates were kept at 37° C. with the gas condition of 5% CO2 and 5% O2 for 72 hours and then parasite growth was quantified with Makler's method to detect plasmodial lactate dehydrogenase (Makler, M. T., Rise, J. M., Williams, J. A., Bancroft, J. E., Piper, R. C., Gibbins, B. L. and Hinrichs, D. J., Parasite lactate dehydrogenase as an Assay for Plasmodium falciparum drug sensitivity. Am. J. Med. Hyg., 48:739-741, 1993) with some modification. Precisely, culture plate was kept in freezer overnight and then thawed at 37° C. to disrupt the erythrocytes and parasite cells. In the new 96-well titer plates, 100 micro L of enzyme reaction solution (110 mM Li-lactate, 0.5 mM acetylpyridine-adenine dinucleotide, 50 mM Tris (pH 7.5), 10 mM EDTA, 50 mM KCl and 15 g/L PEG6000) and 20 micro L of freeze-thaw culture were mixed in each well and then kept at room temperature for 30 minutes. The detection solution was prepared by mixing equal volume of 2 mg/mL nitro blue tetrazolium and 0.1 mg/mL phenazine ethosulfate and 20 micro L of the solution was added to each well. After the incubation at room temperature in the dark for 90 minutes, absorbance at 660 nm was analysed and IC50s were calculated from dose response curve.

[2] = system: Plasmodium falciparum strain K1 (chloroquine-resistant); assay: in vitro drug susceptibility test, parasite lactate dehydrogenase detection, strain K1; type: cell-based; conditions: 72 hours incubation, pLDH absorbance at 660 nm, read-out: Pf_K1 IC50
Experimental: as §1

[3] = system: Plasmodium falciparum Pf3D70087/N9; assay: humanized murine malaria model, parasitemia by flow cytometry; type: in vivo; conditions: oral, once daily for three days (I, V) or four days (II), start 72 h post infection, read seven days post infection
Experimental: The following pharmacological tests in the humanized murine malaria model were conducted using the compounds I, II and V at The Art of Discovery S.L. (Bizkaia, Spain). Briefly, mice engrafted with human erythrocytes were intravenously infected with parasitized red blood cells 72 h before drug treatment inception. The effect of treatment on parasitemia was assessed by measuring the percentage of infected erythrocytes in peripheral blood.
Plasmodium falciparum Pf3D70087/N9, the parasite strain used in this experiment, was described in reference (1). Immunodeficient female NSG (NOD-scid IL-2Rγnull) mice were engrafted with human erythrocytes to have a minimum of 40% of human erythrocytes circulating in peripheral blood during the whole experiment. Each mouse was intraperitoneally (i.p.) or intravenously (i.v.) inoculated with 1 mL (i.p.) or 0.7 mL (i.v.) of 50%-75% hematocrit erythrocyte suspension in RPMI1640 medium, 25% (vol/vol) decomplemented human serum, 3.1 mM hypoxanthine. Then humanized NSG mice were infected with peripheral blood from donor mice by intravenous injection of 0.3 mL of 1.17×10^8 parasitized-erythrocytes per ml suspension. Drug treatment was started after 72-h post infection. In the treatment, 10 ml/kg of compound solution were orally administered to each mouse, once daily for three or four days (three days for compounds I and V, four days for compound II, respectively). An analysis of the parasite population in peripheral blood was performed by flow cytometry as shown in reference (2) and the outcome was shown as the parasitemia expressed as the % of parasitized erythrocytes to the total erythrocytes in peripheral blood. Briefly, serial 2 micro L blood samples of peripheral blood from infected mice were stained with TER-119-Phycoerythrine (marker of murine erythrocytes) and SYTO-16 (nucleic acid dye) and then analyzed by flow cytometry. The therapeutic efficacies were expressed as ED90, the daily doses that reduce by 90% parasitemia to untreated control animals after seven days post infection.

Row | SMILES | IC50 [1] | IC50 [2] | ED90, daily dose that reduces parasitemia by 90% to untreated control animals [3] [mg/kg/day]
1 | Cc1nn(C(F)F)cc1-c1cc(C(=O)NCc2ccc(O[C@H](C)C(F)(F)F)cc2)c(N)nc1N [III, (R)-2,6-diamino-5-(1-(difluoromethyl)-3-methyl-1H-pyrazol-4-yl)-N-(4-((1,1,1-trifluoropropan-2-yl)oxy)benzyl)nicotinamide] | 0.078 µg/mL and 162 nM | 0.121 µg/mL and 249 nM | 
2 | Nc1nc(N)c(-n2cnc(C(F)(F)F)n2)cc1C(=O)NCc1ccc(OCC(F)(F)F)cc1 [IV, 2,6-diamino-N-(4-(2,2,2-trifluoroethoxy)benzyl)-5-(3-(trifluoromethyl)-1H-1,2,4-triazol-1-yl)nicotinamide] | 125 nM | 0.031 µg/mL and 171 nM | 
3 | Nc1nc(N)c(-c2cnn(C(F)F)c2)cc1C(=O)NCc1ccc(OCC(F)(F)F)cc1F [IX, 2,6-diamino-5-(1-(difluoromethyl)-1H-pyrazol-4-yl)-N-(2-fluoro-4-(2,2,2-trifluoroethoxy)benzyl)nicotinamide] | 0.05 µg/mL and 113 nM | 0.083 µg/mL and 160 nM | 
4 | C[C@@H](Oc1ccc(CNC(=O)c2cc(-n3cnc(C(F)F)n3)c(N)nc2N)cc1)C(F)(F)F [V, (R)-2,6-diamino-5-(3-(difluoromethyl)-1H-1,2,4-triazol-1-yl)-N-(4-((1,1,1-trifluoropropan-2-yl)oxy)benzyl)nicotinamide] | 0.047 µg/mL and 99 nM | 0.075 µg/mL and 160 nM | 6.2
5 | C[C@@H](Oc1ccc(CNC(=O)c2cc(-n3cnc(C(F)(F)F)n3)c(N)nc2N)cc1)C(F)(F)F [compound I, (R)-2,6-diamino-5-(3-(trifluoromethyl)-1H-1,2,4-triazol-1-yl)-N-(4-((1,1,1-trifluoropropan-2-yl)oxy)benzyl)nicotinamide] | 0.026 µg/mL | 0.043 µg/mL and 30 nM | 3.2
6 | C[C@@H](Oc1ccc(CNC(=O)c2cc(-c3cnn(C(F)F)c3)c(N)nc2N)cc1)C(F)(F)F [compound II, (R)-2,6-diamino-5-(1-(difluoromethyl)-1H-pyrazol-4-yl)-N-(4-((1,1,1-trifluoropropan-2-yl)oxy)benzyl)nicotinamide] | 0.02 µg/mL and 42 nM | 0.025 µg/mL and 53 nM | 5.0

Now from value to compound, other results behind:

Row | IC50 [1] | IC50 [2] | SMILES | ED90, daily dose that reduces parasitemia by 90% to untreated control animals [3] [mg/kg/day]
7 | 0.024 µg/mL and 48 nM | 0.038 µg/mL and 75 nM | C[C@@H](Oc1ccc(CNC(=O)c2cc(-n3cnc(CC(F)(F)F)n3)c(N)nc2N)cc1)C(F)(F)F [VI, (R)-2,6-diamino-5-(3-(2,2,2-trifluoroethyl)-1H-1,2,4-triazol-1-yl)-N-(4-((1,1,1-trifluoropropan-2-yl)oxy)benzyl)nicotinamide] | 
8 | 0.016 µg/mL and 30 nM | 0.021 µg/mL and 41 nM | Nc1nc(N)c(-n2cnc(C3(C(F)(F)F)CC3)n2)cc1C(=O)NCc1ccc(OCC(F)(F)F)cc1 [VII, 2,6-diamino-N-(4-(2,2,2-trifluoroethoxy)benzyl)-5-(3-(1-(trifluoromethyl)cyclopropyl)-1H-1,2,4-triazol-1-yl)nicotinamide] | 
9 | 0.02 µg/mL and 54 nM | 0.031 µg/mL and 64 nM | C[C@@H](Oc1ccc(CNC(=O)c2cc(-n3cnc(C4(F)CC4)n3)c(N)nc2N)cc1)C(F)(F)F [VIII, (R)-2,6-diamino-5-(3-(1-fluorocyclopropyl)-1H-1,2,4-triazol-1-yl)-N-(4-((1,1,1-trifluoropropan-2-yl)oxy)benzyl)nicotinamide] | 
